According to ChEMBL document CHEMBL1201862, “PubChem BioAssay data set” (2004):
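The compound was tested at five concentrations on cells cultured in 96-well plates, with a 48-hour exposure period. Abbreviation: GI50, concentration required for 50% inhibition of growth.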 Calls of active or inactive are those of the source. Cut-off read from the data, not from the text of the source: active = GI50 up to about 1.1 µM and inactive = higher.

What was measured:
Test in all cases: DTP human tumour cell line panel, 48 h
786-0 = tested on: 786-0
A498 = tested on: A498
A549 = tested on: A549
ACHN = tested on: ACHN
BT-549 = tested on: BT-549
CAKI-1 = tested on: CAKI-1
CCRF-CEM = tested on: CCRF-CEM
COLO 205 = tested on: COLO 205
DU-145 = tested on: DU-145
EKVX = tested on: EKVX
HCC 2998 = tested on: HCC 2998
HCT-116 = tested on: HCT-116
HCT-15 = tested on: HCT-15
HL-60 = tested on: HL-60
HOP-62 = tested on: HOP-62
HOP-92 = tested on: HOP-92
HT-29 = tested on: HT-29
Hs-578T = tested on: Hs-578T
IGROV-1 = tested on: IGROV-1
K562 = tested on: K562
KM12 = tested on: KM12
LOX IMVI = tested on: LOX IMVI
M14 = tested on: M14
MCF7 = tested on: MCF7
MDA-MB-231 = tested on: MDA-MB-231
MDA-MB-435 = tested on: MDA-MB-435
MDA-N = tested on: MDA-N
MOLT-4 = tested on: MOLT-4
Malme-3M = tested on: Malme-3M
NCI-H226 = tested on: NCI-H226
NCI-H23 = tested on: NCI-H23
NCI-H460 = tested on: NCI-H460
NCI-H522 = tested on: NCI-H522
NCI/ADR-RES = tested on: NCI/ADR-RES
OVCAR-3 = tested on: OVCAR-3
OVCAR-4 = tested on: OVCAR-4
OVCAR-5 = tested on: OVCAR-5
OVCAR-8 = tested on: OVCAR-8
PC-3 = tested on: PC-3
RPMI-8226 = tested on: RPMI-8226
RXF 393 = tested on: RXF 393
SF-268 = tested on: SF-268
SF-295 = tested on: SF-295
SF-539 = tested on: SF-539
SK-MEL-28 = tested on: SK-MEL-28
SK-MEL-2 = tested on: SK-MEL-2
SK-MEL-5 = tested on: SK-MEL-5
SK-OV-3 = tested on: SK-OV-3
SN12C = tested on: SN12C
SNB-19 = tested on: SNB-19
SNB-75 = tested on: SNB-75
SR = tested on: SR
SW-620 = tested on: SW-620
T47D = tested on: T47D
TK-10 = tested on: TK-10
U-251 = tested on: U-251
UACC-257 = tested on: UACC-257
UACC-62 = tested on: UACC-62
UO-31 = tested on: UO-31

Compound: CCCCCCCCCCCCC1N=C(N)N2CCCC2=C1C(=O)OC (configuration not stated)
- GI50 (786-0): 1.74 µM (inactive)
- GI50 (A498): 22.6 µM (inactive)
- GI50 (A549): 8.67 µM (inactive)
- GI50 (ACHN): 5.38 µM (inactive)
- GI50 (BT-549): 10.9 µM (inactive)
- GI50 (CAKI-1): 3.24 µM (inactive)
- GI50 (CCRF-CEM): 1.61 µM (inactive)
- GI50 (COLO 205): 1.95 µM (inactive)
- GI50 (DU-145): 8.07 µM (inactive)
- GI50 (EKVX): 14.7 µM (inactive)
- GI50 (HCC 2998): 1.84 µM (inactive)
- GI50 (HCT-116): 1.73 µM (inactive)
- GI50 (HCT-15): 1.79 µM
- GI50 (HL-60): 1.85 µM (inactive)
- GI50 (HOP-62): 4.24 µM (inactive)
- GI50 (HOP-92): 4.35 µM (inactive)
- GI50 (HT-29): 1.67 µM (inactive)
- GI50 (Hs-578T): 2.25 µM (inactive)
- GI50 (IGROV-1): 3.22 µM (inactive)
- GI50 (K562): 1.38 µM (inactive)
- GI50 (KM12): 1.98 µM (inactive)
- GI50 (LOX IMVI): 1.51 µM (inactive)
- GI50 (M14): 1.73 µM (inactive)
- GI50 (MCF7): 1.77 µM (inactive)
- GI50 (MDA-MB-231): 1.9 µM (inactive)
- GI50 (MDA-MB-435): 1.86 µM (inactive)
- GI50 (MDA-N): 1.95 µM (inactive)
- GI50 (MOLT-4): 1.47 µM (inactive)
- GI50 (Malme-3M): 1.8 µM (inactive)
- GI50 (NCI-H226): 19.1 µM (inactive)
- GI50 (NCI-H23): 2.26 µM (inactive)
- GI50 (NCI-H460): 1.79 µM (inactive)
- GI50 (NCI-H522): 1.76 µM (inactive)
- GI50 (NCI/ADR-RES): 5.92 µM (inactive)
- GI50 (OVCAR-3): 2.14 µM (inactive)
- GI50 (OVCAR-4): 2.31 µM (inactive)
- GI50 (OVCAR-5): 6.25 µM (inactive)
- GI50 (OVCAR-8): 2.49 µM (inactive)
- GI50 (PC-3): 1.62 µM (inactive)
- GI50 (RPMI-8226): 1.82 µM (inactive)
- GI50 (RXF 393): 47.8 µM (inactive)
- GI50 (SF-268): 3.44 µM (inactive)
- GI50 (SF-295): 1.78 µM (inactive)
- GI50 (SF-539): 5.41 µM (inactive)
- GI50 (SK-MEL-28): 1.69 µM (inactive)
- GI50 (SK-MEL-2): 2.32 µM (inactive)
- GI50 (SK-MEL-5): 2.42 µM (inactive)
- GI50 (SK-OV-3): 8.49 µM (inactive)
- GI50 (SN12C): 2.75 µM (inactive)
- GI50 (SNB-19): 1.8 µM (inactive)
- GI50 (SNB-75): 1.54 µM (inactive)
- GI50 (SR): 2.13 µM (inactive)
- GI50 (SW-620): 1.7 µM (inactive)
- GI50 (T47D): 1.69 µM (inactive)
- GI50 (TK-10): 7.62 µM (inactive)
- GI50 (U-251): 1.65 µM (inactive)
- GI50 (UACC-257): 1.86 µM (inactive)
- GI50 (UACC-62): 1.74 µM (inactive)
- GI50 (UO-31): 8.26 µM (inactive)

Compound: CC(C)(C)N1C(=O)c2ccccc2C1(O)C(F)(F)F (configuration not stated)
- GI50 (786-0): > 100 µM (inactive)
- GI50 (A498): > 100 µM (inactive)
- GI50 (A549): > 100 µM (inactive)
- GI50 (ACHN): > 100 µM (inactive)
- GI50 (BT-549): > 100 µM (inactive)
- GI50 (CAKI-1): > 100 µM (inactive)
- GI50 (CCRF-CEM): > 100 µM (inactive)
- GI50 (COLO 205): > 100 µM (inactive)
- GI50 (DU-145): > 100 µM (inactive)
- GI50 (EKVX): 64 µM (inactive)
- GI50 (HCC 2998): > 100 µM (inactive)
- GI50 (HCT-116): > 100 µM (inactive)
- GI50 (HCT-15): > 100 µM
- GI50 (HL-60): > 100 µM (inactive)
- GI50 (HOP-62): > 100 µM (inactive)
- GI50 (HOP-92): > 100 µM (inactive)
- GI50 (HT-29): > 100 µM (inactive)
- GI50 (Hs-578T): 24 µM (inactive)
- GI50 (IGROV-1): 74 µM (inactive)
- GI50 (K562): 20.5 µM (inactive)
- GI50 (KM12): > 100 µM (inactive)
- GI50 (LOX IMVI): > 100 µM (inactive)
- GI50 (M14): > 100 µM (inactive)
- GI50 (MCF7): > 100 µM (inactive)
- GI50 (MDA-MB-231): > 100 µM (inactive)
- GI50 (MDA-MB-435): > 100 µM (inactive)
- GI50 (MDA-N): 84.9 µM (inactive)
- GI50 (Malme-3M): 38 µM (inactive)
- GI50 (NCI-H226): > 100 µM (inactive)
- GI50 (NCI-H23): > 100 µM (inactive)
- GI50 (NCI-H460): > 100 µM (inactive)
- GI50 (NCI-H522): 64.4 µM (inactive)
- GI50 (NCI/ADR-RES): > 100 µM (inactive)
- GI50 (OVCAR-3): > 100 µM (inactive)
- GI50 (OVCAR-4): > 100 µM (inactive)
- GI50 (OVCAR-5): > 100 µM (inactive)
- GI50 (OVCAR-8): > 100 µM (inactive)
- GI50 (PC-3): 60.1 µM (inactive)
- GI50 (RPMI-8226): 76.6 µM (inactive)
- GI50 (RXF 393): > 100 µM (inactive)
- GI50 (SF-268): > 100 µM (inactive)
- GI50 (SF-295): > 100 µM (inactive)
- GI50 (SF-539): > 100 µM (inactive)
- GI50 (SK-MEL-28): > 100 µM (inactive)
- GI50 (SK-MEL-2): > 100 µM (inactive)
- GI50 (SK-MEL-5): > 100 µM (inactive)
- GI50 (SK-OV-3): > 100 µM (inactive)
- GI50 (SN12C): > 100 µM (inactive)
- GI50 (SNB-19): > 100 µM (inactive)
- GI50 (SNB-75): 24.4 µM (inactive)
- GI50 (SR): > 100 µM (inactive)
- GI50 (SW-620): > 100 µM (inactive)
- GI50 (T47D): 53.6 µM (inactive)
- GI50 (TK-10): > 100 µM (inactive)
- GI50 (U-251): > 100 µM (inactive)
- GI50 (UACC-257): > 100 µM (inactive)
- GI50 (UACC-62): > 100 µM (inactive)
- GI50 (UO-31): > 100 µM (inactive)
